Measurements reported in US20260184663A1, “INDENE COMPOUNDS, PHARMACEUTICAL COMPOSITIONS THEREOF, AND THEIR THERAPEUTIC APPLICATIONS” (NucMito Pharmaceuticals co. Ltd., priority 2022, published 2026).

What was measured:
Assay type in all cases: cell-based
[1] = test system: A549 (lung adenocarcinoma); test: Antiproliferative activity (CCK-8 cell viability), A549; conditions: Homo sapiens, 72 h, read-out: Antiproliferative activity in cancerous cells, A549 (inhibition of cell growth); for inhibition at 3.3 µM: Compound concentration: 3.3 μM; for inhibition at 10 µM: Compound concentration: 10 μM
Summary of the method: (§1)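 Cells grown in DMEM (HepG2, SW480), MEM (HeLa) or F-12K (A549), each with 10% FBS, then exposed to compound at 3.3, 10 or 30 μM for 72 h at 37 °C. CCK-8 absorbance at 450 nm; viability expressed as percent of DMSO-treated cells, graded as growth inhibition bands.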

[2] = test system: SW480 (colon cancer); test: Antiproliferative activity (CCK-8 cell viability), SW480; conditions: Homo sapiens, 72 h, read-out: Antiproliferative activity in cancerous cells, SW480 (inhibition of cell growth); for inhibition at 3.3 µM: Compound concentration: 3.3 μM; for inhibition at 10 µM: Compound concentration: 10 μM
Summary of the method: as §1

[3] = test system: MDA-MB-231 (breast cancer); test: Antiproliferative activity (CCK-8 cell viability), MDA-MB-231; conditions: Homo sapiens, 72 h, read-out: Antiproliferative activity in cancerous cells, MDA-MB-231 (inhibition of cell growth); for inhibition at 3.3 µM: Compound concentration: 3.3 μM; for inhibition at 10 µM: Compound concentration: 10 μM
Summary of the method: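 MDA-MB-231 breast cancer cells, grown in DMEM with 10% FBS, were plated in 96-well plates at 2,000-5,000 cells/well. Once attached, they were exposed to compound and incubated at 37° C. for 72 h. Viability was then measured with CCK-8 (10 μL per well, 4 h at 37° C.) by absorbance at 450 nm, relative to DMSO vehicle wells.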

[4] = test system: alpha-smooth muscle actin (α-SMA); test: Inhibition of TGF-β induced expression of alpha-smooth muscle actin (α-SMA) in CFSC cells (western blot); conditions: compound at 10 μM, TGF-β (10 ng/mL), 24 hours, band intensity vs TGF-β only
Summary of the method: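 Values are percent reduction of α-SMA band intensity relative to cells given TGF-β alone, quantified by Western blot densitometry with β-actin probed. Compound was applied at 10 μM alongside 10 ng/mL TGF-β to serum-free CFSC cultures for 24 h at 37 °C.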

[5] = test system: B16F10 (malignant melanoma); test: Antiproliferative activity (CCK-8 cell viability), B16F10; conditions: Mus musculus, 72 h; for inhibition at 3.3 µM: B16-F10, Compound concentration: 3.3 μM; for inhibition at 3.3 µM / inhibition at 10 µM: read-out: Antiproliferative activity in cancerous cells, B16F10 (inhibition of cell growth); for inhibition at 10 µM: B16-F10, Compound concentration: 10 μM
Summary of the method: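 B16F10 melanoma cells grown in DMEM with 10% FBS were plated in 96-well plates at 2,000-5,000 cells/well. After attachment they were exposed to compound in medium for 72 h at 37° C. CCK-8 solution (10 μL) was then added, and after 4 h at 37° C absorbance was read at 450 nm.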

[6] = test system: HeLa (cervical cancer); test: Antiproliferative activity (CCK-8 cell viability), HeLa; conditions: Homo sapiens, 72 h, read-out: Antiproliferative activity in cancerous cells, HELA (inhibition of cell growth); for inhibition at 3.3 µM: Compound concentration: 3.3 μM; for inhibition at 10 µM: Compound concentration: 10 μM
Summary of the method: as §1

[7] = test system: A431 (epidermoid carcinoma); test: Antiproliferative activity (CCK-8 cell viability), A431; conditions: Homo sapiens, 72 h; for inhibition at 3.3 µM: A-431, Compound concentration: 3.3 μM; for inhibition at 3.3 µM / inhibition at 10 µM: read-out: Antiproliferative activity in cancerous cells, A431 (inhibition of cell growth); for inhibition at 10 µM: A-431, Compound concentration: 10 μM
Summary of the method: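 A431 epidermoid carcinoma cells grown in DMEM with 10% FBS were plated at 2,000-5,000 cells/well in 96-well plates. After attachment they were exposed to compound at 3.3 μM, 10 μM, or 30 μM for 72 h at 37° C. Viability was then assessed by CCK-8 against DMSO vehicle-treated wells.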

[8] = test system: HepG2 (liver cancer); test: Antiproliferative activity (CCK-8 cell viability), HepG2; conditions: Homo sapiens, 72 h, read-out: Antiproliferative activity in cancerous cells, HepG2 (inhibition of cell growth); for inhibition at 3.3 µM: Compound concentration: 3.3 μM; for inhibition at 10 µM: Compound concentration: 10 μM
Summary of the method: as §1

SMILES	inhibition at 3.3 µM [1]	inhibition at 10 µM [1]	inhibition at 3.3 µM [2]	inhibition at 10 µM [2]	inhibition at 3.3 µM [3]	inhibition at 10 µM [3]	inhibition at 10 µM [4]	inhibition at 3.3 µM [5]	inhibition at 10 µM [5]	inhibition at 3.3 µM [6]	inhibition at 10 µM [6]	inhibition at 3.3 µM [7]	inhibition at 10 µM [7]	inhibition at 3.3 µM [8]	inhibition at 10 µM [8]	inhibition at 30 µM ([5]; B16-F10, Compound concentration: 30 μM, read-out: Antiproliferative activity in cancerous cells, B16F10)	inhibition at 30 µM ([7]; A-431, Compound concentration: 30 μM, read-out: Antiproliferative activity in cancerous cells, A431)
CC1=C(C(C)C(=O)O)c2ccccc2/C1=C\c1ccc(Oc2ccc(F)cc2)cc1 (centres unmarked) [C29, (Z)-2-(1-(4-(4-Fluorophenoxy)benzylidene)-2-methyl-1H-inden-3-yl)propanoic acid]	< 30%	30 to 50%	30 to 50%	30 to 50%	30 to 50%	≥ 50%	50 to 80%	30 to 50%	≥ 50%	≥ 50%	≥ 50%	< 30%	≥ 50%	< 30%	≥ 50%		
O=C(O)CC1=C(Cc2ccc(Oc3ccc(F)cc3)cc2)/C(=C/c2ccc(CN3CCOCC3)cc2)c2ccc(F)cc21 [A113, (Z)-2-(5-Fluoro-2-(4-(4-fluorophenoxy)benzyl)-1-(4-(morpholinomethyl)-benzylidene)-1H-inden-3-yl)acetic acid]	30 to 50%	30 to 50%	≥ 50%	≥ 50%	≥ 50%	≥ 50%	> 80%	< 30%	< 30%	≥ 50%	≥ 50%	< 30%	< 30%	≥ 50%	≥ 50%	< 30%	< 30%
CC1=C(CC(=O)O)c2ccc(F)cc2/C1=C\c1cccc(COc2ccccc2)c1 [B10, (Z)-2-(6-Fluoro-2-methyl-1-(3-(phenoxymethyl)benzylidene)-1H-inden-3-yl)-acetic acid]	< 30%	≥ 50%	< 30%	< 30%	30 to 50%	≥ 50%	> 80%	< 30%	≥ 50%	< 30%	< 30%	< 30%	≥ 50%	30 to 50%	≥ 50%		
CCCC1=C(CC(=O)O)c2cc(F)ccc2/C1=C\c1ccc(COc2ccccc2)cc1 [A4, (Z)-2-(5-Fluoro-1-(4-(phenoxymethyl)benzylidene)-2-propyl-1H-inden-3-yl)-acetic acid]	30 to 50%	≥ 50%	< 30%	30 to 50%	≥ 50%	≥ 50%	50 to 80%	30 to 50%	≥ 50%	≥ 50%	≥ 50%	< 30%	≥ 50%	30 to 50%	≥ 50%		
O=C(O)CC1=C(CC2CCCC2)/C(=C/c2cccc(Oc3ccccc3)c2)c2ccc(F)cc21 [C20, (Z)-2-(2-(Cyclopentylmethyl)-5-fluoro-1-(3-phenoxybenzylidene)-1H-inden-3-yl)acetic acid]	30 to 50%	≥ 50%	≥ 50%	≥ 50%	30 to 50%	≥ 50%	> 80%	≥ 50%	≥ 50%	30 to 50%	≥ 50%	≥ 50%	≥ 50%	< 30%	< 30%		
